These are literature values, as cited in patent US8644910B2, “Imaging protocols” (Biosensors International Group, Ltd., priority 2005, dated 2014).

Read-outs that look alike come from different tables or passages of the source.

For data set [1] the following is noted: administration to lactating women.
The conditions of data set [2]: 600 MBq, common bone scan.
Test in data set [3]: not given
This is another data set of the same source.

The conditions of data set [4]: stored at 15-25° C. before and after reconstitution.
For data set [5] the following is noted: prepared product.

Regarding `O=C([O-])CC(O)(CC(=O)[O-])C(=O)[O-].[Ga+3]` [^67Ga-citrate, Gallium Citrate], in data set [1], the “breast feeding interruption advised” value is reported as “Complete cessation”.

For `O=P(O)(O)CP(=O)(O)O` [^99mTc-MDP, medronate, metal not drawn], the effective dose in data set [2] is given as 3 mSv.

`[99Tc].[C-]#[N+]CC(C)(C)OC.[C-]#[N+]CC(C)(C)OC.[C-]#[N+]CC(C)(C)OC.[C-]#[N+]CC(C)(C)OC.[C-]#[N+]CC(C)(C)OC.[C-]#[N+]CC(C)(C)OC` [^99mTc-Sestamibi, technetium-99m-methoxyisobutylisonitrile]: for the setting “at exercise”, the Myocardial uptake is listed as 1.5 % of the injected dose. Also, the Myocardial uptake (at rest) is 1.2 % of the injected dose. For the same molecule, the “cleared through the feces” value in data set [3] (in 48 hours) is on record as “approximately thirty-three”. In data set [3] (in vivo), the “excreted in the urine” value is given as “Twenty-seven”, the “major pathway for clearance” value is on record as “hepatobiliary system” and the metabolism entry is “excreted without any evidence of metabolism”. Also, the “time for use after preparation” value in data set [4] was at most 6 h.

Consider `[Na+].[O]=[Tc](=[O])(=[O])[O-]` [^99mTc-pertechnetate, Sodium pertechnetate], for which the “breast feeding interruption advised” value in data set [1] was “brief interruption (hours to days)”.

In the case of `N=C(N)NCc1cccc([131I])c1` [^123I-metaiodobenzylguanidine, metaiodobenzylguanidine], the “breast feeding interruption advised” value in data set [1] was “brief interruption (hours to days)”.

Take `[I-].[Na+]` [^123I-sodium iodide, sodium iodide]: in data set [1], the “breast feeding interruption advised” value is “Complete cessation”.

For the molecule `[Cl][201Tl]` [^201Tl, Tl-201-thallous chloride], the “breast feeding interruption advised” value in data set [1] was “brief interruption (hours to days)”.

“Technetium Tc 99m Arcitumomab (CEA-Scan)”: the shelf life in data set [5] is at most 4 h.
